Test results as given in patent publication US10987359B2, “Oxadiazepinone derivatives and methods of treating hepatitis B infections” (priority 2016, dated 2021).

Each molecule was assayed on HBV (assay: HBV replication inhibition assay (BDNA assay) in HepG2.2.15 cells). Conditions: HBV replication assay (BDNA assay), HepG2.2.15 cells; read-out: DNA EC50.
Assay type: cell-based
Description: HBV replication inhibition by the disclosed compounds were determined in cells infected or transfected with HBV or cells with stably integrated HBV, such as HepG2.2.15 cells (Sells et al. 1987). In this example, HepG2.2.15 cells were maintained in cell culture medium containing 10% fetal bovine serum (FBS), Geneticin, L-glutamine, penicillin and streptomycin. HepG2.2.15 cells were seeded in 96-well plates at a density of 40,000 cells/well and were treated with serially diluted compounds at a final DMSO concentration of 0.5% either alone or in combination by adding drugs in a checker box format. Cells were incubated with compounds for three days, after which medium was removed and fresh medium containing compounds was added to cells and incubated for another three days. At day 6, supernatant was removed and treated with DNase at 37° C. for 60 minutes, followed by enzyme inactivation at 75° C. for 15 minutes. Encapsidated HBV DNA was released from the virions and covalently linked HBV polymerase by incubating in lysis buffer (Affymetrix QS0010) containing 2.5 μg proteinase K at 50° C. for 40 minutes. HBV DNA was denatured by addition of 0.2 M NaOH and detected using a branched DNA (BDNA) QuantiGene assay kit according to manufacturer recommendation (Affymetrix). HBV DNA levels were also quantified using qPCR, based on amplification of encapsidated HBV DNA extraction with QuickExtraction Solution (Epicentre Biotechnologies) and amplification of HBV DNA using HBV specific PCR probes that can hybridize to HBV DNA and a fluorescently labeled probe for quantitation. In addition, cell viability of HepG2.2.15 cells incubated with test compounds alone or in combination was determined by using CellTitre-Glo reagent according to the manufacturer protocol (Promega). The mean background signal from wells containing only culture medium was subtracted from all other samples, and percent inhibition at each compound concentration was calculated by normalizing to signals from HepG2.2.15 cells treated with 0.5% DMSO using equation E1. % inhibition=(DMSOave−Xi)/DMSOave×100% E1: […]
where DMSOave is the mean signal calculated from the wells that were treated with DMSO control (0% inhibition control) and Xi is the signal measured from the individual wells. EC50 values, effective concentrations that achieved 50% inhibitory effect, were determined by non-linear fitting using Graphpad Prism software (San Diego, Calif.) and equation E2: Y=Y min+(Y max−Y min)/(1+10(Log EC50−X)×HillSlope) E2: […]
where Y represents percent inhibition values and X represents the logarithm of compound concentrations.
Selected disclosed compounds were assayed in the HBV replication assay (BDNA assay), as described above, and a representative group of these active compounds is shown in Table 7. […] In Table 7, “A” represents 1<EC50≤100; “B” represents 100<EC50≤500; “C” represents 500<EC50≤1000; and “D” represents EC50>1000.
Molecule `CN1OC(CO)Cn2nc3c(c2C1=O)CN(C(=O)Nc1ccc(F)c(C(F)(F)F)c1)CC3` (single isomer, unassigned) [Compound 011_E2, (R*)—N-(4-fluoro-3-(trifluoromethyl)phenyl)-4-(hydroxymethyl)-2-methyl-1-oxo-1,4,5,8,9,11-hexahydropyrido[4′,3′:3,4]pyrazolo[5,1-d][1,2,5]oxadiazepine-10(2H)-carboxamide] has an EC50 of 1 to 100 nM.

Same assay, conditions: Hepatitis B virus, HepG2.2.15, HBV replication assay (BDNA assay), HepG2.2.15 cells; read-out: DNA EC50
`C[C@@H]1Cc2nn3c(c2CN1C(=O)Nc1cc(C(F)(F)F)ccc1F)C(=O)N(C)O[C@H](CO)C3` (relative stereo) [Compound 157_D1, (4S*,9R)—N-[2-fluoro-5-(trifluoromethyl)phenyl]-4-(hydroxymethyl)-2,9-dimethyl-1-oxo-5,8,9,11-tetrahydro-4H-pyrido[2,3]pyrazolo[2,4-d][1,2,5]oxadiazepine-10-carboxamide] showed an EC50 of 1 to 100 nM.
Molecule `C[C@@H]1Cc2nn3c(c2CN1C(=O)Nc1cc(C(F)(F)F)ccc1F)C(=O)N(C)O[C@@H](CO)C3` (relative stereo) [Compound 157_D2, (4R*,9R)—N-[2-fluoro-5-(trifluoromethyl)phenyl]-4-(hydroxymethyl)-2,9-dimethyl-1-oxo-5,8,9,11-tetrahydro-4H-pyrido[2,3]pyrazolo[2,4-d][1,2,5]oxadiazepine-10-carboxamide] has an EC50 of 1 to 100 nM.
`CN1OC(CO)Cn2nc3c(c2C1=O)CN(C(=O)Nc1ccc(F)c(C(F)(F)F)c1)CC3` (single isomer, unassigned) [Compound 011_E1, (S*)—N-(4-fluoro-3-(trifluoromethyl)phenyl)-4-(hydroxymethyl)-2-methyl-1-oxo-1,4,5,8,9,11-hexahydropyrido[4′,3′:3,4]pyrazolo[5,1-d][1,2,5]oxadiazepine-10(2H)-carboxamide] showed an EC50 of 1 to 100 nM.
Molecule `CN1OC(CO)Cn2nc3c(c2C1=O)CN(C(=O)Nc1cc(F)c(F)c(Cl)c1)CC3` (single isomer, unassigned) [Compound 028_E1, (S*)—N-(3-chloro-4,5-difluorophenyl)-4-(hydroxymethyl)-2-methyl-1-oxo-1,4,5,8,9,11-hexahydropyrido[4′,3′:3,4]pyrazolo[5,1-d][1,2,5]oxadiazepine-10(2H)-carboxamide] has an EC50 of 1 to 100 nM.
With `CN1OC(CO)Cn2nc3c(c2C1=O)CN(C(=O)Nc1ccc(F)c(Cl)c1)CC3` (single isomer, unassigned) [Compound 031_E1, (S*)—N-(3-chloro-4-fluorophenyl)-4-(hydroxymethyl)-2-methyl-1-oxo-1,4,5,8,9,11-hexahydropyrido[4′,3′:3,4]pyrazolo[5,1-d][1,2,5]oxadiazepine-10(2H)-carboxamide] the EC50 was 1 to 100 nM.
`CN1OC(CO)Cn2nc3c(c2C1=O)CN(C(=O)Nc1ccc(F)c(Br)c1)CC3` (single isomer, unassigned) [Compound 032_E1, (S*)—N-(3-bromo-4-fluorophenyl)-4-(hydroxymethyl)-2-methyl-1-oxo-1,4,5,8,9,11-hexahydropyrido[4′,3′:3,4]pyrazolo[5,1-d][1,2,5]oxadiazepine-10(2H)-carboxamide] was tested, and the EC50 was 1 to 100 nM.
In the case of `CN1OC(CO)Cn2nc3c(c2C1=O)CN(C(=O)Nc1ccnc(Br)c1F)CC3` (single isomer, unassigned) [Compound 033_E1, (S*)—N-(2-bromo-3-fluoropyridin-4-yl)-4-(hydroxymethyl)-2-methyl-1-oxo-1,4,5,8,9,11-hexahydropyrido[4′,3′:3,4]pyrazolo[5,1-d][1,2,5]oxadiazepine-10(2H)-carboxamide], the EC50 is reported as 1 to 100 nM.
`CN1OC(CO)Cn2nc3c(c2C1=O)CN(C(=O)Nc1ccc(F)c(C#N)c1)CC3` (single isomer, unassigned) [Compound 034_E1, (S*)—N-(3-cyano-4-fluorophenyl)-4-(hydroxymethyl)-2-methyl-1-oxo-1,4,5,8,9,11-hexahydropyrido[4′,3′:3,4]pyrazolo[5,1-d][1,2,5]oxadiazepine-10(2H)-carboxamide] gave an EC50 of 1 to 100 nM.
Work on `Cc1cc(NC(=O)N2CCc3nn4c(c3C2)C(=O)N(C)OC(CO)C4)ccc1F` (single isomer, unassigned) [Compound 035_E1, (S*)—N-(4-fluoro-3-methylphenyl)-4-(hydroxymethyl)-2-methyl-1-oxo-1,4,5,8,9,11-hexahydropyrido[4′,3′:3,4]pyrazolo[5,1-d][1,2,5]oxadiazepine-10(2H)-carboxamide] yielded an EC50 of 1 to 100 nM.
In the case of `CN1OC(CF)Cn2nc3c(c2C1=O)CN(C(=O)Nc1cccc(Cl)c1)CC3` (single isomer, unassigned) [Compound 037_E1, (S*)—N-(3-chlorophenyl)-4-(fluoromethyl)-2-methyl-1-oxo-1,4,5,8,9,11-hexahydropyrido[4′,3′:3,4]pyrazolo[5,1-d][1,2,5]oxadiazepine-10(2H)-carboxamide], the EC50 is reported as 1 to 100 nM.
`CN1OC(CF)Cn2nc3c(c2C1=O)CN(C(=O)Nc1ccc(F)c(Cl)c1)CC3` (single isomer, unassigned) [Compound 038_E1, (S*)—N-(3-chloro-4-fluorophenyl)-4-(fluoromethyl)-2-methyl-1-oxo-1,4,5,8,9,11-hexahydropyrido[4′,3′:3,4]pyrazolo[5,1-d][1,2,5]oxadiazepine-10(2H)-carboxamide] was tested, and the EC50 was 1 to 100 nM.
`CN1OC(CF)Cn2nc3c(c2C1=O)CN(C(=O)Nc1ccc(F)c(C(F)(F)F)c1)CC3` (single isomer, unassigned) [Compound 039_E1, (S*)—N-(4-fluoro-3-(trifluoromethyl)phenyl)-4-(fluoromethyl)-2-methyl-1-oxo-1,4,5,8,9,11-hexahydropyrido[4′,3′:3,4]pyrazolo[5,1-d][1,2,5]oxadiazepine-10(2H)-carboxamide] showed an EC50 of 1 to 100 nM.
Molecule `CN1OC(CF)Cn2nc3c(c2C1=O)CN(C(=O)Nc1ccc(F)c(Br)c1)CC3` (single isomer, unassigned) [Compound 040_E1, (S*)—N-(3-bromo-4-fluorophenyl)-4-(fluoromethyl)-2-methyl-1-oxo-1,4,5,8,9,11-hexahydropyrido[4′,3′:3,4]pyrazolo[5,1-d][1,2,5]oxadiazepine-10(2H)-carboxamide] has an EC50 of 1 to 100 nM.
`CN1OC(CF)Cn2nc3c(c2C1=O)CN(C(=O)Nc1ccnc(Br)c1F)CC3` (single isomer, unassigned) [Compound 041_E1, (S*)—N-(2-bromo-3-fluoropyridin-4-yl)-4-(fluoromethyl)-2-methyl-1-oxo-1,4,5,8,9,11-hexahydropyrido[4′,3′:3,4]pyrazolo[5,1-d][1,2,5]oxadiazepine-10(2H)-carboxamide] was tested, and the EC50 was 1 to 100 nM.
`CN1OC(CF)Cn2nc3c(c2C1=O)CN(C(=O)Nc1ccc(F)c(C#N)c1)CC3` (single isomer, unassigned) [Compound 042_E1, (S*)—N-(3-cyano-4-fluorophenyl)-4-(fluoromethyl)-2-methyl-1-oxo-1,4,5,8,9,11-hexahydropyrido[4′,3′:3,4]pyrazolo[5,1-d][1,2,5]oxadiazepine-10(2H)-carboxamide] gave an EC50 of 1 to 100 nM.
`Cc1cc(NC(=O)N2CCc3nn4c(c3C2)C(=O)N(C)OC(CF)C4)ccc1F` (single isomer, unassigned) [Compound 043_E1, (S*)—N-(4-fluoro-3-methylphenyl)-4-(fluoromethyl)-2-methyl-1-oxo-1,4,5,8,9,11-hexahydropyrido[4′,3′:3,4]pyrazolo[5,1-d][1,2,5]oxadiazepine-10(2H)-carboxamide] gave an EC50 of 1 to 100 nM.
In the case of `CN1OC(CF)Cn2nc3c(c2C1=O)CN(C(=O)Nc1cc(F)c(F)c(Cl)c1)CC3` (single isomer, unassigned) [Compound 044_E1, (S*)—N-(3-chloro-4,5-difluorophenyl)-4-(fluoromethyl)-2-methyl-1-oxo-1,4,5,8,9,11-hexahydropyrido[4′,3′:3,4]pyrazolo[5,1-d][1,2,5]oxadiazepine-10(2H)-carboxamide], the EC50 is reported as 1 to 100 nM.
With `CCN1OC(CO)Cn2nc3c(c2C1=O)CN(C(=O)Nc1ccc(F)c(Cl)c1)CC3` (single isomer, unassigned) [Compound 060_E1, (S*)—N-(3-chloro-4-fluorophenyl)-2-ethyl-4-(hydroxymethyl)-1-oxo-1,4,5,8,9,11-hexahydropyrido[4′,3′:3,4]pyrazolo[5,1-d][1,2,5]oxadiazepine-10(2H)-carboxamide] the EC50 was 1 to 100 nM.
